Like-named read-outs stand apart in the source and are kept apart here.
Tests used:
planktonic MRPA and MRSA = experiment: Example IV: planktonic MRPA and MRSA study; type: cell-based; details: for planktonic MRPA and MRSA reduction compared to the control: methylene blue 0.005% w/v, no EDTA
Method: An in vitro study was conducted on planktonic MRPA and MRSA using the following compositions. (i) compositions each comprising EDTA at One of the following concentrations: 0.005 mM, 0.01 mM, 0.025 mM, 0:05 mM (0.0014612% w/v), 0.075 mM (0.0021918% w/v), 0.1 mM, 0.175 mM, 0.25 mM and 0.4 mM (0.0116896% w/v); (ii) composition comprising of methylene blue at a concentration of 0.005% w/v; and (iii) compositions each comprising of methylene blue at a concentration of 0.005% w/v with EDTA at one of the following concentrations: 0.005 mM, 0.01 mM, 0:025 mM, 0.05 mM, 0.075 mM, 0.1 mM 0.175 mM, 0.25 mM and 0.4 mM. The planktonic MRPA and MRSA samples were prepared in the same fashion as described in Example 1 in order to obtain approximately 1.5×10^8 cells/mL of MRPA and approximately 1.5×10^8 cells/mL of MRSA which were then combined.
Each of the compositions discussed above was prepared and then mixed with the combined bacterial solution of MRPA and MRSA and incubated for 30 seconds (“treated samples”). Thereafter, test tubes were prepared each containing 50 μl of one of the treated samples. Some of these test tubes were kept in dark incubation for 400 seconds while the remaining test tubes were exposed to 664 nm light using a non-laser light at a power density of 100 mW/cm^2 and a light energy dose of 10 J/cm^2.
Thereafter, a cotton-tipped swab (Puritan, Guilford, Me.) was dipped into the suspension contained within each test tube, placed in 1 mL of PBS With the stick broken off, and then vortexed for 3-5 seconds (“test samples”). […] The colonies were counted by a Protos automated counter (Synoptics, Frederick, Md.) to determine the number of viable bacteria and expressed as colony forming units (CFU). […] Counts for all experimental and control conditions were averaged and expressed as CFU/ml.
The planktonic MRPA and MRSA reduction rate was calculated as surviving CFU/ml in experimental conditions vs. the control (i.e., test samples that received no treatment) expressed as a log10 reduction from control and shown in FIGS. 6-7.

[1] = test system: polymicrobial biofilms containing MRPA and MRSA; experiment: Example I: photodynamic disinfection of polymicrobial biofilm discs; type: cell-based
Method: (§1) An in vitro study was conducted on polymicrobial biofilms containing MRPA and MRSA using the following compositions: (i) compositions each comprising EDTA at one of the following concentrations: 0.5 mM (0.014612% w/v), 0.75 mM, 1.0 mM and 1.25 mM; (ii) composition comprising of methylene blue at a concentration of 0.05% w/v; (iii) compositions each comprising methylene blue at a concentration of 0.05% w/v and EDTA at one of the following concentrations: 0.5 mM, 0.75 mM, 1.0 mM and 1.25 mM. Clinical isolates of MRPA and MRSA were used in this study. Overnight tryptic soy broth (Remel, Lenexa, Kans.) cultures were centrifuged for 15 minutes at 5,000 RPM. The supernatants were removed and the cells washed and resuspended in 1× phosphate buffered saline (PBS) by alternate rounds of centrifugation for 2 minutes at 12.1×g and resuspension. Resulting bacterial suspensions were diluted with PBS to obtain approximately 1.5×10^5 cells/mL of each bacterium measured using a CrystalSpec nephlometer (BD Diagnostic Systems, Sparks, Md.). The suspensions were then combined. […]
(§2) Thereafter, all of the biofilm discs were each placed in a sterile 50 mL centrifuge tube with 1 mL of PBS, vortexed vigorously for one minute. […] The colonies were counted by a Protos automated counter (Synoptics, Frederick, Md.) to determine the total number of viable bacteria and expressed as colony forming units (CFU). […]

[2] = test system: Pseudomonas aeruginosa ATCC # 9027 in polymicrobial biofilms; experiment: Example III: polymicrobial biofilm study, Pseudomonas aeruginosa count; type: cell-based; details: no EDTA, 669 nm, 72 J/cm^2
Method: An in vitro study was conducted on polymicrobial biofilms containing MRSA and Pseudomonas aeruginosa. Stock cultures of MRSA ATCC # 33592 and Pseudomonas aeruginosa ATCC # 9027 were grown aerobically overnight on tryptic soy agar, harvested individually, and suspended in PBS solution with MRSA at a concentration of ˜2×10^8 CFU/ml and Pseudomonas aeruginosa at a concentration of ˜3×10^6 CFU/ml. Cell densities were measured as a function of absorbance at 420 nm using a Genesys 10 spectrophotometer (Thermo Scientific, Pittsburgh, Pa.). Pseudomonas aeruginosa inocula were then serial diluted in PBS to a concentration of ˜3×10^4 CFU/ml. The two suspended inocula (MRSA and Pseudomonas aeruginosa) were mixed at a ratio of 1:1 and then further diluted 1:40 into tryptic soy broth to achieve the biofilm inoculum of having a MRSA final concentration of ˜2.5×10^6 CFU/ml and Pseudomonas aeruginosa at a final concentration of ˜3.75×10^3 CFU/ml
The biofilm inoculum, prepared as described above, was then pipetted onto 8 mm diameter sterile silicone discs placed inside a 24-well culture plate with 600 μl of the biofilm inoculum per well. The plates were then allowed to shake for 24 hours at 125 rotations per minute using an Innova 200 platform gyrorotary shaker (New Brunswick Scientific Co, Edison N.J.) at 35° C. After 24 hours, all residual liquid from each well was removed and 600 μl of sterile tryptic soy broth was added to each well. […]
Immediately following illumination, the glass cover slip was removed carefully using sterile forceps and biofilm disc surfaces were swabbed using a calcium alginate swab following a reproducible “X” pattern. […] Colony counts were counted separately for each bacterial species (i.e., MRSA and Pseudomonas aeruginosa) providing differentiation of reduction for each of the bacterial species. Counts for all experimental and control conditions were averaged and expressed as CFU/ml. The bacteria reduction rate was calculated as surviving CFU/ml in experimental conditions vs. the control expressed as a log10 reduction from the control. […]

[3] = test system: polymicrobial biofilms containing MRPA and MRSA; experiment: Example II: repeat polymicrobial biofilm study, protocol of Example I; type: cell-based; details: FIG. 2; methylene blue 0.05% w/v, no EDTA
Method: as §1, §2

[4] = cited from earlier work

Row | Structure (SMILES) | bacterial count reduction (planktonic MRPA and MRSA; EDTA alone at 0.005 mM to 0.4 mM, without light (dark incubation for 400 seconds)) | biofilm bacterial count reduction ([1]; EDTA alone at 0.5 mM, 0.75 mM, 1.0 mM and 1.25 mM) | Pseudomonas aeruginosa reduction compared to the control ([2]; FIG. 3, methylene blue 0.01% w/v) [log10] | Pseudomonas aeruginosa reduction compared to the control ([2]; FIG. 4, methylene blue 0.03% w/v) [log10] | Pseudomonas aeruginosa reduction compared to the control ([2]; FIG. 5, methylene blue 0.05% w/v) [log10] | bacterial reduction compared to the control [3] [log10] | yield of the singlet oxygen generation ([4]; pH 5) | yield of the singlet oxygen generation ([4]; pH 9) | planktonic MRPA and MRSA reduction compared to the control (planktonic MRPA and MRSA; FIG. 6, without any light (dark incubation 400 seconds)) [log10] | planktonic MRPA and MRSA reduction compared to the control (planktonic MRPA and MRSA; FIG. 7, with light treatment (664 nm, 10 J/cm^2)) [log10] | bacterial reduction compared to the control ([1]; FIG. 1, methylene blue 0.05% w/v, no EDTA, 664 nm, 45 J/cm^2) [log10]
1 | O=C(O)CN(CCN(CC(=O)O)CC(=O)O)CC(=O)O [EDTA, ethylenediaminetetraacetic acid] | did not result in any statistically significant bacterial count reduction | did not result in any statistically significant biofilm bacterial count reduction | – | – | – | – | – | – | – | – | –
2 | CN(C)c1ccc2nc3ccc(=[N+](C)C)cc-3sc2c1 [methylene blue] | – | – | 2.9 | 2.9 | 2.6 | 3.4 | 0.2 | 0.94 | 2.4 | 3.5 | 2.5
